In brackets after ≈: the same amount, converted by molar mass. Read-outs that look alike come from different tables or passages of the source.
How the values were obtained:
[1] = target: T1, human GnRH receptors (Homo sapiens, UniProt P30968); test: Radioligand binding: inhibition of 125I-GnRH-A binding to human GnRH receptor membranes; conditions: HEK 293 cell membranes
T1 construct: expressed in transfected cells; host or cells: HEK 293 cells, stably transfected; membranes
T1 sequence (P30968 1-328): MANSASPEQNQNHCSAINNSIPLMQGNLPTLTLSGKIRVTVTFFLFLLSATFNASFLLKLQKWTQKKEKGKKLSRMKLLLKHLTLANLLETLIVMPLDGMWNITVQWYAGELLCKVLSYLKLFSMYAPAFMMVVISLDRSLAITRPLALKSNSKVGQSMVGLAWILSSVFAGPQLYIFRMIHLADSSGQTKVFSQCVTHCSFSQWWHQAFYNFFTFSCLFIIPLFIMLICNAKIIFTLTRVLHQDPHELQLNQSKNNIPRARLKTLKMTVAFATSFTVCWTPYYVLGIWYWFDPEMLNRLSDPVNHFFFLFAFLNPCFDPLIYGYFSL
Outline: (§1)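 Membranes from rat pituitaries, or HEK 293 cells stably expressing mouse or human receptor, incubated 1 hour at room temperature with ~0.04-0.06 nM radioligand (HEPES pH 7.4, EDTA, MgCl2, BSA) and competitor at 0.1-10,000 nM. Bound ligand collected by GF/C filtration and counted; Ki derived from IC50 by Cheng-Prusoff.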

[2] = target: T2, rat GnRH receptor (Rattus norvegicus, UniProt P30969); test: Radioligand binding: inhibition of 125I-GnRH-A binding to rat GnRH receptor (rat pituitary membranes); conditions: read-out: Ki (nM), Inhibition Binding of 125I-GnRH-A to GnRH Receptors
T2 construct: or rat pituitaries (Pel Freez Biologicals, Rogers, Ark.) were homogenized; tissue Pel Freez Biologicals; host or cells: rat pituitaries (membrane preparation)
T2 sequence (P30969 1-327): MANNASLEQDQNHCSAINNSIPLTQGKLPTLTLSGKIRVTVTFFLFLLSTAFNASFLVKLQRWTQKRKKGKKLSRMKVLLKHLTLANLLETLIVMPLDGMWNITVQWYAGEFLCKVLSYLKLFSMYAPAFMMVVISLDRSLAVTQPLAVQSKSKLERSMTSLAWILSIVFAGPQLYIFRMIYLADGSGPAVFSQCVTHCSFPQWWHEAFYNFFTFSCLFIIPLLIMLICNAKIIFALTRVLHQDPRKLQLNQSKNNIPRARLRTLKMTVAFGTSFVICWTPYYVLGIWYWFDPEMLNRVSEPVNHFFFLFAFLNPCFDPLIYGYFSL
Outline: as §1

[3] = In vitro metabolism: disappearance of parent compound in rat liver microsomes (male, female); type: in vitro ADME; conditions: 5 uM compound, 30 minutes 37° C.; for Fem. Rat (FR) % rem. 30′: female rat liver microsomes; for Male Rat (MR) % rem. 30′: male rat liver microsomes
Outline: (§2)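 Microsomes from human, rat (male, female), dog and monkey liver incubated with 5 uM compound, 0.5 mg/ml protein and 2 mM NADPH in 50 mM K phosphate, pH 7.4, for 30 min at 37° C. Reaction stopped with acetonitrile; parent compound remaining measured by LC-MS.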

[4] = In vitro metabolism: disappearance of parent compound in dog liver microsomes; type: in vitro ADME; conditions: 5 uM compound, 30 minutes 37° C.
Outline: as §2

[5] = In vitro metabolism: disappearance of parent compound in monkey liver microsomes; type: in vitro ADME; conditions: 5 uM compound, 30 minutes 37° C.
Outline: as §2

[6] = Rat plasma % remain; type: in vitro ADME
[7] = target: H S A (Homo sapiens, UniProt P02768); test: H S A column α; type: in vitro ADME
Chain of H S A (P02768 25-609): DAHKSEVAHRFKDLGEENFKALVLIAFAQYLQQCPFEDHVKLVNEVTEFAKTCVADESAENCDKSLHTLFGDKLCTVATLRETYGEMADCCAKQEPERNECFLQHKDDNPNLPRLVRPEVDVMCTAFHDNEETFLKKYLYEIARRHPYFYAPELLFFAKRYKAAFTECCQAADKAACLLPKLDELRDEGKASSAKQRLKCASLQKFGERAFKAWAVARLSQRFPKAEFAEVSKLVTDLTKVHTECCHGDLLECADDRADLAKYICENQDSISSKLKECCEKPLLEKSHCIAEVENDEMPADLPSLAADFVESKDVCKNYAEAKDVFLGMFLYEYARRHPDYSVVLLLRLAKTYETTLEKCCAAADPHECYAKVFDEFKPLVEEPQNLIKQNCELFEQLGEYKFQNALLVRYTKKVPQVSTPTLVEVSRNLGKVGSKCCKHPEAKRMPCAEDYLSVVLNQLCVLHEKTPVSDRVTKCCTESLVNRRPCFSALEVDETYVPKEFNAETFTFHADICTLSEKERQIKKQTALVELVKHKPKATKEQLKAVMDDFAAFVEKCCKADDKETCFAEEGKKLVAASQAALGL

[8] = Solubility at pH2 and pH6; type: physicochemical
[9] = pH 6, aqueous buffer, pH6, read-out: Solubility μg/ml pH6

Row | SMILES | Ki [1] | Ki [2] | Fem. Rat (FR) % rem. 30′ [3] | Male Rat (MR) % rem. 30′ [3] | Dog % rem. 30′ [4] | Monkey % rem. [5] | Rat plasma % remain [6] | H S A column α [7] | solubility ([8]; pH 2, simulated gastric fluid, pH2, read-out: Solubility μg/ml pH2) | solubility [8, 9]
1 | COc1nc(OC)c(NC(=O)c2ccc(Cc3cc4c(cc3C)C(C)(C)OC4(C)C)o2)c(OC)n1 [Example A1, 5-(1,1,3,3,6-Pentamethyl-1,3-dihydro-isobenzofuran-5-ylmethyl)-furan-2-carboxylic Acid (2,4,6-trimethoxy-pyrimidin-5-yl)-amide] | 4.6 nM | 3.8 nM | 74% | 11% | 22% | 0% | 100% | 1 | > 12 µg/mL | > 12 µg/mL
2 | COc1nc(OCCO)nc(OC)c1NC(=O)c1ccc(Cc2cc3c(cc2C)C(C)(C)OC3(C)C)o1 [Example A3, 5-(1,1,3,3,6-Pentamethyl-1,3-dihydro-isobenzofuran-5-ylmethyl)-furan-2-carboxylic acid [2-(2-hydroxy-ethoxy)-4,6-dimethoxy-pyrimidin-5-yl]-amide] | 7.7 nM | 5.4 nM | 75% | 44% | 49% | 7% | 100% | 0.4 |  | > 15 µg/mL
3 | COc1nc(N(C)C)nc(OC)c1NC(=O)c1ccc(Cc2cc3c(cc2C)C(C)(C)CCC3(C)C)o1 [Example B2, 5-(3,5,5,8,8-Pentamethyl-5,6,7,8-tetrahydro-naphthalen-2-ylmethyl)-furan-2-carboxylic Acid (dimethylamino-dimethoxy-pyrimidin-5-yl)-amide] | 1.8 nM | 11 nM | 35% | 11% | 4% | 12% | 83% | >30 |  | 0.4 µg/mL (≈ 0.79 µM)
4 | COc1nc(OC)c(NC(=O)c2ccc(Cc3cc4c(cc3C)C(C)(C)CCC4(C)C)o2)c(OC)n1 [Example C1, 5-(3,5,5,8,8-Pentamethyl-5,6,7,8-tetrahydro-naphthalen-2-ylmethyl)-furan-2-carboxylic Acid (2,4,6-trimethoxy-pyrimidin-5-yl)-amide] | 0.55 nM | 0.7 nM | 72% | 1% | 0% | 0% | 100% | 13 |  | 1 µg/mL (≈ 2.03 µM)

Reference: patent US6833372B2, “Non-peptide GnRH agents, Pharmaceutical compositions, and methods for their use” (Pfizer, Inc., priority 2002, dated 2004)
